The target in series [1] is T1, HiBiT-tagged IKZF1 (Homo sapiens, UniProt Q13422+Q96SW2).
T1 construct: expressed in transfected cells; host or cells: HT-1080 (ATCC CCL-121), lentiviral transduction
The series is described as follows: Degradation assay for IKZF1 (HiBiT tag bioluminescence assay). It counts as cell-based. The procedure: (§1) About 10,000 cells in complete DMEM cell culture media were seeded per well. Assay plates were incubated at 37° C. with 5% CO2 for hours, followed by the assessment of IKZF1 or SALL4 degradation using the Nano-Glo HiBiT Lytic Detection Reagent (Cat #N3050, Promega) according to the manufacturer's instruction. Luminescence was then measured with an EnVision plate reader (PerkinElmer) or a PHERAstar plate reader (BMG Labtech). All IKZF1 or SALL4 degradation curves were processed using Collaborative Drug Discovery Vault softwares. IKZF1 or SALL4 levels in compound-treated wells were normalized to that of DMSO control and expressed as Percent of Control (PoC, y). A four Parameter Logistic Model was used to determine the compound's EC50 and DC50, using the following equation:
(§2) A=Ymin (lowest IKZF1 or SALL4 level normalized to DMSO control in response to compound treatment, as determined by curve fit)
(§3) B=Ymax (IKZF1 or SALL4 level in DMSO control)
(§4) C=EC50 half degradation concentration
(§5) EC50=the concentration of compound when y=(Ymax−Ymin)/2
(§6) DC50=test sample concentration when IKZF1 or SALL4 readings y=50% DMSO-treated samples
(§7) y=IKZF1 or SALL4 readings after test sample treatment (normalized to IKZF1 or SALL4 readings in DMSO-treated samples)
(§8) Dmax represents the maximum percentage of IKZF1 or SALL4 protein degradation induced by compound treatment.
Background: With HiBiT, luminescence reflects the tagged protein that the partner subunit can reach.

The next series concerns the target T2, HiBiT-tagged SALL4 (Homo sapiens, UniProt Q96SW2+Q9UJQ4).
T2 construct: expressed in transfected cells; host or cells: HT-1080 (ATCC CCL-121), lentiviral transduction
The series is described as follows: Degradation assay for SALL4 (HiBiT tag bioluminescence assay). In kind it is cell-based. The procedure:
as §1, §2, §3, §4, §5, §6, §7, §8

A further series concerns MM.1S cells. The series is described as follows: MM.1S cell proliferation assay (CellTiter-Glo). The note with it: for IC50: Homo sapiens, MM1.S, read-out: MM.1S: IC50; for Ymin: lowest cell viability read normalized to DMSO control, MM.1S, 120 hours. It counts as cell-based. The protocol:
About 3,000 cells in 50 μL of culture medium were seeded per well. Assay plates were incubated at 37° C. with 5% CO2 for 120 hours. After that, 20 μL of the CellTiter-Glo Luminescent Cell Viability Assay Reagent (Cat #G7573, Promega) was added to each well and incubated at room temperature for 30 minutes. Luminescence was then measured with an EnVision plate reader (PerkinElmer) or a PHERAstar plate reader (BMG LABTECH). All percentage of cell growth inhibition curves were processed using Collaborative Drug Discovery Vault softwares. Cell viability reads in compound-treated wells were normalized to that of DMSO control and expressed as Percent of Control (PoC, y). A four Parameter Logistic Model was used to determine the compound's EC50 and DC50, using the following equation:
[formula] • wherein, • A=Ymin (lowest cell viability read normalized to DMSO control in response to compound treatment, as determined by curve fit) • B=Ymax (the maximum value, cell viability read in DMSO control) • C=EC50 half inhibitory concentration • D=Hill Slope • x=compound concentration
as §5
y=cell viability read normalized to DMSO control
(ATP-based viability assays read luminescence as a measure of living cells.)

Series [2] can be described thus: Pharmacokinetic study in mice. It counts as in vivo. To be noted: male CD1 mice. The procedure:
Objective: The objective of this study was to determine the pharmacokinetics of test compound following a single intravenous (IV) bolus dose and a single oral (PO) administration in male CD1 mice by quantifying the concentrations of the test compound at different times in plasma using LC/MS/MS method.
Materials: Male CD1 mouse (20-30 g, 6-8 weeks, Zhejiang Vital River Laboratory Animal Technology Co., Ltd.).
The clear solution of the test article was injected into CD1 mice via tail vein (free access to food and water), or orally administrated into CD1 mice (free access to food and water). After administration, blood was collected from the dorsal metatarsal vein at 5 min (0.0833 h, IV only), 15 min (0.25 h), 30 min (0.5 h), 60 min (1 h), 2 h, 4 h, 6 h, 8 h and 24 h. Blood samples were placed in an anticoagulant tube with EDTA-K2 at 4° C., mixed adequately and centrifuged at 4000 g for 5 min to get the plasma. The plasma concentration was quantified by LC-MS/MS. The PK parameters were calculated using non-compartmental model by Phoenix WinNonlin 6.1 (Linear/log trapezoidal).

Series [3] deals with T1, HiBiT-tagged IKZF1. The series is described as follows: IKZF1 protein degradation kinetics (IKZF1 HiBiT degradation assay, incubation 1, 2 or 4 hours). It counts as cell-based. The source says:
The following is a general method for testing compounds-induced degradation of HiBiT-tagged IKZF1 or SALL4 overexpressed in a human cell line, for example, the HT-1080 cell line (American Type Culture Collection (ATCC), catalog number CCL-121). The HT-1080 IKZF1 (or SALL4) HiBiT reporter cell line was engineered via lentiviral transduction to stably overexpress GSPT1 (Δ1-138)/G575N and HiBiT-tagged IKZF1 or SALL4. The HT-1080 IKZF1 (or SALL4) HiBiT reporter cell line was maintained in DMEM media supplemented with 10% fetal bovine serum, IX sodium pyruvate, 1× non-essential amino acids, IX glutamine, 100 U/ml penicillin, and 100 μg/mL streptomycin. The HT-1080 IKZF1 (or SALL4) HiBiT reporter cells were seeded into 384-well plates (Cat #3764, Corning) pre-spotted with DMSO or test compounds. Increasing concentrations of test compounds (ranging from 15.81 pM to 500 nM or from 0.3162 nM to 10 μM at a 3.162-fold increment) or DMSO were dispensed into an empty 384-well plate using an Echo 650 Acoustic Liquid Handler (Beckman Coulter). About 10,000 cells in complete DMEM cell culture media were seeded per well. Assay plates were incubated at 37° C. with 5% CO2 for hours, followed by the assessment of IKZF1 or SALL4 degradation using the Nano-Glo HiBiT Lytic Detection Reagent (Cat #N3050, Promega) according to the manufacturer's instruction. Luminescence was then measured with an EnVision plate reader (PerkinElmer) or a PHERAstar plate reader (BMG Labtech). All IKZF1 or SALL4 degradation curves were processed using Collaborative Drug Discovery Vault softwares. IKZF1 or SALL4 levels in compound-treated wells were normalized to that of DMSO control and expressed as Percent of Control (PoC, y). A four Parameter Logistic Model was used to determine the compound's EC50 and DC50, using the following equation: […]
The IKZF1 protein degradation kinetics of compounds 9-B and 9-A was evaluated using the IKZF1 HiBiT degradation assay as described above except that the incubation time was changed to 1, 2 or 4 hours.

Setting [4] is: antiproliferative, 120 hours incubation, CellTiter-Glo.
[5] abbreviates: HT-1080, Table 1; HT-1080 IKZF1 HiBiT reporter cells; maximum percentage of protein degradation.
Where [6] appears, read: Table 1; HT-1080 IKZF1 HiBiT reporter cells; performed once with technical duplicates, some compounds tested on different days; read-out: HiBiT IKZF1: DC50.
The mark [7] stands for this setting: HT-1080, Table 1; HT-1080 SALL4 HiBiT reporter cells; maximum percentage of protein degradation.
Where [8] appears, read: Table 1; HT-1080 SALL4 HiBiT reporter cells; performed once with technical duplicates, some compounds tested on different days; read-out: HiBiT SALL4: DC50.
Where [9] appears, read: mouse, Table 4, PO (10 mg/kg), plasma.
Where [10] appears, read: after 1 hour of compound incubation.
Where [11] appears, read: mouse, Table 5, PO (10 mg/kg), plasma.

The record followed here is US20240360150A1, “ISOINDOLINONE COMPOUNDS AND USES THEREOF” (HANGZHOU GLUBIO PHARMACEUTICAL CO. LTD., priority 2021, published 2024).

Like-named read-outs stand apart in the source and are kept apart here.

T1 sequence (Q13422 whole entry): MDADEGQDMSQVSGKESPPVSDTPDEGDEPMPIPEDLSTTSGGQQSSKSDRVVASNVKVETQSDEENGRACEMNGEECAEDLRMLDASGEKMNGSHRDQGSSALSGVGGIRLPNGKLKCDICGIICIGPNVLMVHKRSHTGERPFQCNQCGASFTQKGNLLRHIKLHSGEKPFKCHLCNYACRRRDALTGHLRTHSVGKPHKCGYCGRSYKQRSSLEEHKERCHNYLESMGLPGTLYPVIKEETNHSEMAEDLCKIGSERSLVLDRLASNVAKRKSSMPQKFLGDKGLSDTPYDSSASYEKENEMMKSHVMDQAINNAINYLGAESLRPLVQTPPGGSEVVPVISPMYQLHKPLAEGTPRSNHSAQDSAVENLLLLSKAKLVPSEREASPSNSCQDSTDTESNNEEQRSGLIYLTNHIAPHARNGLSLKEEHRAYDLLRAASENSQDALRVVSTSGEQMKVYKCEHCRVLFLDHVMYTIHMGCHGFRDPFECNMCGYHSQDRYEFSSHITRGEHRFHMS
T1 sequence (Q96SW2 whole entry): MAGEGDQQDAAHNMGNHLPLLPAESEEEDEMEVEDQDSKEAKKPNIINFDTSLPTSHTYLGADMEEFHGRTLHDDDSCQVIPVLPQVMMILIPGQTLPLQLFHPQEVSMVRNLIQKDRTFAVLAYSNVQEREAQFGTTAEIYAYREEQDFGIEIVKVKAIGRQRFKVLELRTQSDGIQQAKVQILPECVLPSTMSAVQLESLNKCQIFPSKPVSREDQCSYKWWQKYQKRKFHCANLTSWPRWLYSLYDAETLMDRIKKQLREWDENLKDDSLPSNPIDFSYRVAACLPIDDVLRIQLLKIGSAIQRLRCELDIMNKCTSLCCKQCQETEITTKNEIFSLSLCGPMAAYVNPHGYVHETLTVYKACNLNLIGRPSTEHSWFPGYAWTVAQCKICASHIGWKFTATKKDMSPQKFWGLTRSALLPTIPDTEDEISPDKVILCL
T1 sequence (Q16531 whole entry partner): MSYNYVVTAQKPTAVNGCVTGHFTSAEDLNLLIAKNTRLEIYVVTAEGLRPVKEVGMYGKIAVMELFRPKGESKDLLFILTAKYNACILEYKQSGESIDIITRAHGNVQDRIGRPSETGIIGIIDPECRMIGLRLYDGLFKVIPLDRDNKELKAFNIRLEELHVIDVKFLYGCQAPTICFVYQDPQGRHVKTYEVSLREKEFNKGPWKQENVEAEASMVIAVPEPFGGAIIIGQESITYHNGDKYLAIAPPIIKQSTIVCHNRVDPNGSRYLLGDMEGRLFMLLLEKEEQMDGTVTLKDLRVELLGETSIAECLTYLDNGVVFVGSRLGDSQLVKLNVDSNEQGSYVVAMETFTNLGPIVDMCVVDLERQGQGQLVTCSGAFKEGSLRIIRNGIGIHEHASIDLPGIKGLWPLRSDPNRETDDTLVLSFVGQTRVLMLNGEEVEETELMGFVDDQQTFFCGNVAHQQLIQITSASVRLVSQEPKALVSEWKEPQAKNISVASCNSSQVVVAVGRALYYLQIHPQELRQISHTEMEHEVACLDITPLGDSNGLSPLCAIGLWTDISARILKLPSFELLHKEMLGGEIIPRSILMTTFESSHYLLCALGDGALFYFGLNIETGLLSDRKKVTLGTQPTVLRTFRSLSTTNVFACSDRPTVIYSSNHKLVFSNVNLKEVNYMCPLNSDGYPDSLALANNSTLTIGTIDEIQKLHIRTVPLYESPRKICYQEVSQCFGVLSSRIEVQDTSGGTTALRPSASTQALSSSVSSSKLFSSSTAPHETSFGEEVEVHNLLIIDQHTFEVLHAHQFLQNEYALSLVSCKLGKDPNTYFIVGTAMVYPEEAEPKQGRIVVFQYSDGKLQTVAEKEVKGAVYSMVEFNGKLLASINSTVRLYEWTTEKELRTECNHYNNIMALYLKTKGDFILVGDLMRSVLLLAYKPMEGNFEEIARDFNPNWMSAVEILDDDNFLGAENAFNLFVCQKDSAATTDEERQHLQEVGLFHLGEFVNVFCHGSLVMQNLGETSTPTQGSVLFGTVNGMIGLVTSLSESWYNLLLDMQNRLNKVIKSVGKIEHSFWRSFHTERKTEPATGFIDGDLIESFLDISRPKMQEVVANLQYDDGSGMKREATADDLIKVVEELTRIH
T2 sequence (Q9UJQ4 whole entry): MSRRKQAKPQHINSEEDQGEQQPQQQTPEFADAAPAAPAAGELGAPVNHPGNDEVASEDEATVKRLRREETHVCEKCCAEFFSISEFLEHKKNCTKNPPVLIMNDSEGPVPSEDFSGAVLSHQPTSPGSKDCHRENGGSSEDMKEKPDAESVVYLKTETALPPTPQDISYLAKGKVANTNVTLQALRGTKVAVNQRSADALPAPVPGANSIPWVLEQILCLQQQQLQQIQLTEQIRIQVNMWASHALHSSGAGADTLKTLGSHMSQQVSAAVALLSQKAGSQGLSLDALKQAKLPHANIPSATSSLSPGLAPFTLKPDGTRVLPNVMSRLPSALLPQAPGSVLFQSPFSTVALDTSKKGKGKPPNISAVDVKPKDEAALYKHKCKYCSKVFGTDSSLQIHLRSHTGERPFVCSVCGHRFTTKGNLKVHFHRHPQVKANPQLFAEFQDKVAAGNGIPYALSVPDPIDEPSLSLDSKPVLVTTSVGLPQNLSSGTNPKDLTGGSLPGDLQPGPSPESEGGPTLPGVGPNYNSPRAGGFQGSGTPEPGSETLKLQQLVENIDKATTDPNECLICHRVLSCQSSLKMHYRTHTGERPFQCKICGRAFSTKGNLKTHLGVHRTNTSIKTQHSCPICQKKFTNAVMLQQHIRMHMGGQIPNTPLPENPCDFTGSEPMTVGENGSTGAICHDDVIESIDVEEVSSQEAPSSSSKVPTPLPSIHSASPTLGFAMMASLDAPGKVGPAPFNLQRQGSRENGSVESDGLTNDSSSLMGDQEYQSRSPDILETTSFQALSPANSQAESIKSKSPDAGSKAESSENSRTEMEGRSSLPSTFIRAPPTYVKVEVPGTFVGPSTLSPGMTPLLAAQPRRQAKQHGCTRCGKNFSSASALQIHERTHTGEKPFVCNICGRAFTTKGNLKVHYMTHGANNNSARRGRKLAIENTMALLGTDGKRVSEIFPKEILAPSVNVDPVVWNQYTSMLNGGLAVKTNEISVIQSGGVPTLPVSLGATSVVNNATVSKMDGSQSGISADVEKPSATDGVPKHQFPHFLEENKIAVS
T2 sequence (Q96SW2 whole entry): as the sequence (Q96SW2 whole entry) above
T2 sequence (Q16531 whole entry partner): as the sequence (Q16531 whole entry partner) above

By Dmax is commonly meant the greatest extent of degradation seen. Lower therefore signals shallow degradation. For orientation: DC50 means the concentration at which degradation of the target reaches its halfway point. The term IC50 denotes the concentration that inhibits the measured activity by half. As for `N#Cc1ccc(N2CCN(Cc3ccc(COc4cccc5c4CN([C@H]4CCC(=O)NC4=O)C5=O)cc3)CC2)c(F)c1` [CC-92480, reference compound], the Dmax on HiBiT-tagged IKZF1 [1] (Table 2; HT-1080 IKZF1 HiBiT reporter cells; all compounds tested on the same day) was 95.5%; on HiBiT-tagged SALL4 (Table 2; HT-1080 SALL4 HiBiT reporter cells; all compounds tested on the same day), 75.8%. The DC50 at HiBiT-tagged IKZF1 [1] (read-out: HiBiT IKZF1: DC50; Table 2; HT-1080 IKZF1 HiBiT reporter cells; all compounds tested on the same day) turned out to be 105 pM; at HiBiT-tagged SALL4 (read-out: HiBiT SALL4: DC50; Table 2; HT-1080 SALL4 HiBiT reporter cells; all compounds tested on the same day), 3400 pM. Besides, the IC50 with MM.1S cells (setting [4]) amounted to 41 pM. In addition, the Ymin in the series on MM.1S cells is 7.5 (n = 7) %.

Regarding `Nc1cccc2c1C(=O)N(C1CCC(=O)NC1=O)C2=O` (stereo not drawn) [Pomalidomide], the Dmax turned out to be 79.5% on HiBiT-tagged IKZF1 [1] (Table 1; HT-1080 IKZF1 HiBiT reporter cells; maximum percentage of protein degradation) and 69.7% on HiBiT-tagged SALL4 (Table 1; HT-1080 SALL4 HiBiT reporter cells; maximum percentage of protein degradation). Moreover, in the series on MM.1S cells (120 h), the IC50 was greater than 30000 pM.

By AUC(0-t) is commonly meant the area under the concentration-time curve up to a stated or last time point. In general, clearance refers to the volume of plasma or blood freed of the substance per unit of time. Lower therefore signals inefficient removal. A word on the half-life: it is how long it takes for the measured level to halve. What is called Cmax is the highest concentration seen after dosing. In the case of `N#Cc1ccc(N2CCN(Cc3ccc(Cc4ccc5c6c(cc(F)cc46)C(=O)N5C4CCC(=O)NC4=O)cc3)CC2)c(F)c1` (stereo not drawn) [Compound 9], at HiBiT-tagged IKZF1 [1] (setting [5]), the greatest degradation seen (Dmax) worked out at 91.6%. At HiBiT-tagged IKZF1 [1] (setting [6]), the DC50 was 74 pM. The Dmax at HiBiT-tagged SALL4 (setting [7]) came to 58.1%. Also, the DC50 on HiBiT-tagged SALL4 (setting [8]) worked out at 32000 pM. Further, the IC50 in the series with MM.1S cells (setting [4]) amounted to 40 pM. In the series on MM.1S cells, the Ymin was 4.0 (n = 2) %. Further, the F in series [2] (Table 4, PO (10 mg/kg) vs IV (2 mg/kg)) is reported as 27.1%. In addition, in series [2] (mouse, IV (2 mg/kg), plasma), the AUC(0-t) amounted to 17200 ng·h/mL, the clearance was found to be 1.57 mL/min/kg and the half-life is 10.2 h. The Vd in series [2] (mouse, IV (2 mg/kg), plasma, read-out: Vss) amounted to 1.32 L/kg. In series [2] (setting [9]), the AUC(0-t) stood at 23300 ng·h/mL and the peak level (Cmax) was 1460 ng/mL.

Turning to `N#Cc1ccc(N2CCN(Cc3ccc(Cc4ccc5c6c(cc(F)cc46)C(=O)N5[C@H]4CCC(=O)NC4=O)cc3)CC2)c(F)c1` (single isomer, unassigned) [Compound 9-B], the Dmax is 90.9% at HiBiT-tagged IKZF1 [1] (setting [5]); 93.8% at HiBiT-tagged IKZF1 [1] (HT-1080, Table 2; HT-1080 IKZF1 HiBiT reporter cells; all compounds tested on the same day); 59.5% at HiBiT-tagged SALL4 (setting [7]); 59.4% at HiBiT-tagged SALL4 (HT-1080, Table 2; HT-1080 SALL4 HiBiT reporter cells; all compounds tested on the same day); roughly 77% on HiBiT-tagged IKZF1 [3] (setting [10]); 92% at HiBiT-tagged IKZF1 [3] (after 4 hours of incubation). The DC50 on HiBiT-tagged IKZF1 [1] (setting [6]) was 134 pM; at HiBiT-tagged IKZF1 [1] (Table 2; HT-1080 IKZF1 HiBiT reporter cells; all compounds tested on the same day; read-out: HiBiT IKZF1: DC50), 102 pM; at HiBiT-tagged SALL4 (setting [8]), 104000 pM; at HiBiT-tagged SALL4 (Table 2; HT-1080 SALL4 HiBiT reporter cells; all compounds tested on the same day; read-out: HiBiT SALL4: DC50), 102000 pM; on HiBiT-tagged IKZF1 [3] (setting [10]) it was roughly 400 pM; on HiBiT-tagged IKZF1 [3] (after 4 hours of incubation), less than 200 pM. Further, the IC50 with MM.1S cells (setting [4]) was determined as 22 pM. The Ymin in the series with MM.1S cells is listed as 5.6 (n = 3) %. Besides, the AUC(0-t) in series [2] (setting [11]) amounted to 73600 ng·h/mL. Moreover, in series [2] (setting [11]), the Cmax was 4390 ng/mL. The same molecule showed a half-life in series [2] (setting [11]) of 8.3 h.
